Laboratory results from US7767626B2, “3-arylphenyl sulfide derivative and insecticide and miticide” (Kumiai Chemical Industry Co., Ltd., priority 1998, dated 2010).
Where two headings read alike, the source gives them in different places.

Experiments:
two-spotted spider mites = test: Insecticidal test on two-spotted spider mites (Test Example 1); format: in vivo; details: Tetranychus urticae, 312 h, read-out: preventive value
Source text: Test Example 1 Insecticidal Test on Two-Spotted Spider Mites

[1] = wettable powder diluted to 500 ppm active ingredient, soybean seedlings inoculated with adult mites immersed, survivors counted after 13 days, Equation 1

| melting point [°C] | Compound | pest or weed control at 500 µg/mL (two-spotted spider mites; [1]) [%] | pest or weed control at 500 µg/mL (two-spotted spider mites; in Glycine max) [%] |
| --- | --- | --- | --- |
| 89 to 92 | CCSc1cc(-c2ccc(Cl)cc2Cl)ccc1C#N | – | – |
| – | CSc1cc(-c2ccccc2)c(C#N)c(N)c1C#N [Comparative Compound 1, 2-amino-6-methylthio-4-phenyl-benzene-1,3-dicarbonitrile, reference compound] | 0 | – |
| – | CSc1cc(-c2ccccc2)c(C#N)c(N)c1[N+](=O)[O-] [Comparative Compound 2, 2-amino-6-phenyl-4-methylthio-3-nitrobenzonitrile, reference compound] | 0 | – |
| – | CCOCOc1ccc(-c2ccc(C(F)(F)F)cc2)cc1SCC(F)(F)F [Compound I-213, [2-ethoxymethoxy-5-(4-trifluoromethylphenyl)phenyl] 2,2,2-trifluoroethyl sulfide] | – | ≥ 90 |
| 90 to 91 | N#Cc1ccc(-c2n[nH]cc2C(F)(F)F)cc1SCC(F)(F)F [Compound V-639, 2-(2,2,2-trifluoroethylthio)-4-(4-trifluoromethylpyrazolyl)benzonitrile] | ≥ 90 | – |
| 135 to 136 | N#Cc1ccc(-c2ccc(C(F)(F)F)cn2)cc1SCC1CC1 [I I-5, 2-cyclopropylmethylthio-4-(5-trifluoromethylpyridin-2-yl)benzonitrile] | ≥ 90 | – |
| 123 to 124 | N#Cc1ccc(-c2ccc(Cl)s2)cc1SCC1CC1 [I V-5, 4-(5-chlorothiophen-2-yl)-2-cyclopropylmethylthiobenzonitrile] | ≥ 90 | – |

| Compound | melting point [°C] | pest or weed control at 500 µg/mL (two-spotted spider mites; [1]) [%] | pest or weed control at 500 µg/mL (two-spotted spider mites; in Glycine max) [%] |
| --- | --- | --- | --- |
| C=CCSc1cc(-c2ccc(C(F)(F)F)cc2)ccc1C#N [Compound I-42, 2-(2-propenylthio)-4-(4-trifluoromethylphenyl)benzonitrile] | 89 to 90 | – | ≥ 90 |
| CCCSc1cc(-c2ccc(C(F)(F)F)cc2)c(F)cc1[N+](=O)[O-] [Compound I-221, [4-fluoro-2-nitro-5-(4-trifluoromethylphenyl)phenyl] propyl sulfide] | 57 to 59 | – | ≥ 90 |
